# Reference: patent US10399931B2, “Octahydroanthracene compound, preparation method and application thereof” (SHANDONG XINHUA PHARMACEUTICAL CO., LTD., priority 2016, dated 2019)
# Assays:
# [1] = system: APP/PS1 double transgenic AD model mice; assay: β-amyloid deposition in cerebral cortex and hippocampus of APP/PS1 mice; type: in vivo
# Description: The drugs were administered three days after the adaptive feeding. Peanut oil was used as the solvent. […] On the 6th to 9th day after the administration, the new object identification test was performed. On the 10th day, the Y-maze test was performed. On the 11th to 15th day, the Morris water maze test was performed to determine the improvement of learning and memory. The administration of the drugs was continued during the behavioral experiment until the animals were sacrificed (16th day).
# After the behavioral experiment, the mice were anesthetized with an intraperitoneal injection of 3.5% chloral hydrate 3.5% (about […] for each mouse). Then the back of the mouse was fixed on the operating table and the chest was open to expose the heart. A perfusion needle was inserted into the left ventricle from the apex of the heart, while the right atrial appendage cut a small opening. First, perfusion was performed with about 200 ml saline. When the tail of the mouse was cut to find no blood, 300 ml 4% paraformaldehyde buffer (0.1 mol/L) at 4° C. was used to perfuse until the body of the mouse was stiff. The mouse was then decapitated, and the whole brain was obtained and fixed in 4% paraformaldehyde at 4° C. After 24 h, the brain was embedded in conventional paraffin and coronally sectioned to obtain the tissue sections with a thickness of 5 μm for immunohistochemical staining. […]
# SYP, PSD95 and GAP43 = assay: Western blot of synaptic-related proteins in APP/PS1 mice; type: in vivo
# Description: After the behavioral experiment, the animals were anesthetized with an intraperitoneal injection of 3.5% chloral hydrate and cut off the heads quickly to take out the brains. The hippocampus and cortex of the brain were separated on ice, and then weighed and quickly frozen with liquid nitrogen, placed in a refrigerator at −80° C. for standby application.
# The tissue lysate (5 μL PMSF protease inhibitor per mL of lysate) was added to the frozen brain tissue at a ratio of […] (6 mL/g tissue), and ultrasonically homogenized in an ice bath. After homogenization, the tissue homogenate was placed in crushed ice for 30 min, and then centrifuged at 12,000×g for 20 min at 4° C. The supernatant (about 200 μL) was taken and stored in a refrigerator at −80° C. for later use. A portion of the supernatant was taken for protein quantification.
# According to the kit instruction, BCA working reagent was prepared by mixing reagent A with reagent B at a ratio of 50:1 thoroughly. The BCA working reagent was freshly prepared for use at room temperature with a stable period of 24 h. […] (5) The absorbance of the protein (at a wavelength of 540 nm) was determined by a microplate reader. (6) The standard curve was made by Excel, and the concentration of the detected protein was calculated based on the standard curve. […]
smiles,measurement,setting,value
"CC1(C)CCC(C)(C)c2c1cc1c(c2NC(=O)c2ccc(NC(=O)NCCN)cc2)C(C)(C)CCC1(C)C [OAB-14, 1-(2-amino) ethyl-3-{4-[(1,1,4,4,5,5,8,8-octamethyl-1,2,3,4,5,6,7,8-octahydro-9-anthryl)carbamoyl]phenyl} urea]",Reduction of the deposition of β-amyloid protein in cerebral cortex and hippocampus,"[1]; 200 mg/kg, continuous intragastric administration 14 days, 8-month-old APP/PS1 mice",67.4%
same,Dose-effect relationship of the reduction of β-amyloid deposition,"[1]; dose range 50-200 mg/kg, intragastric, 14 days",good dose-effect relationship
same,"Expression of synaptic-related proteins SYP, PSD95 and GAP43","SYP, PSD95 and GAP43; 100 mg/kg group",significantly increased
same,"Expression of synaptic-related proteins SYP, PSD95 and GAP43","SYP, PSD95 and GAP43; 200 mg/kg group",significantly increased
